Source: US20050250737A1, “Therapeutic ophthalmic compositions containing retinal friendly excipients and related methods” (Allergan, Inc., priority 2003, published 2005)
Entries after “also recorded” stand apart in the source; their conditions may differ. Where two headings read alike, the source gives them in different places.

Experiments:
ARPE-19 cells [1] = experiment: MTT cell viability assay on ARPE-19 cells; details: for MTT IC50 (%): ARPE-19 cells, summary Table 3
Text: Cell viability and cell morphology were examined to evaluate the toxicity of excipients on retinal pigment epithelial cells. The human retina cell line used in these experiments is the ARPE-19 cell line (human adult-derived retinal pigmented epithelial cells). […] They form tight-junctions with transepithelial resistance of monolayers (Dunn K C et al., supra). From a molecular standpoint, it appears that ARPE-19 express a huge pattern of genes similar to those expressed by human RPE from fresh explant which could account for their physiological function (Klimanskaya I. et al., “Derivation and comparative assessment of retinal pigment epithelium from human embryonic stem cells using transcriptomics”, Cloning and Stem Cells, 2004, 6(3):217-45).
ARPE-19 cells are widely used as a retinal model that resemble physiological properties of RPE cells. Similar methods of culturing ARPE-19 cells and cytotoxicity assays can be found in Yeung et al., “Cytotoxicity of triamcinolone on cultured human retinal pigment epithelial cells: comparison with dexamethasone and hydrocortisone”, Jpn J. Ophthalmol, 2004; 48:236-242. Cell viability and cell morphology were examined using conventional colormetric and visual methods. Viability and morphology measurements were obtained at 24 hours, 48 hours, and 72 hours after exposure to an excipient composition.
To assess cell viability, mitochondrial metabolism was quantified through conventional colorometric assays (i.e., the MTT assay). This calorimetric assay utilizes 3-(4,5-dimethylthiazol-2-yl)-2,5-diphenyltetrazolium bromide (MTT) and correlates mitochondrial metabolism and cell viability through measurement of dehydrogenase activity which converts a substrate into crystal. More specifically, the assay measures the activity of living cells through mitochondrial dehydrogenases. When dissolved in culture cell medium, MTT solution appears dark orange. Mitochondrial dehydrogenases of viable cells degrade MTT by cleaving the tetrazolium ring yielding to formation of a purple formazan crystal, which is insoluble in water. Crystals are subsequently dissolved in isopropanol solution. A resulting purple solution is spectrophotometrically measured. Cell viability is relative to amount of formazan and calculated as a percentage of remaining treated compared to non-treated cells.
Results from the MTT assay were expressed as a percentage of cell viability calculated using the following equation: % cell viability=ODtest/ODcontrol×100.
For each experiment, one concentration was performed in triplicate. Each point was spectrophotometrically read twice. Average of readings was calculated, then average from these 3 values was determined.
After 3 experiments were independently completed under the same conditions, a graph was plotted with cell viability expressed as a function of concentration (dose response) and for various incubation period (time course). The IC50 was then estimated based on the graphed data.
More specifically, cell density in 24-multiwell plates was observed on the day of the experiment to check if confluence of the cells was reached. Aliquots of MTT concentrated solutions were removed from a freezer at −20° C. and thawed at room temperature. Cell medium was warmed at 37° C. before use. Appropriated tubes for diluting compounds were prepared. Higher concentrations of each excipient agent was prepared. Serial dilution was then performed in cell medium (DMEM:F12+10% FBS).
Cell culture medium in the 24-well plate was removed using vacuum-pump. Cells were then stimulated with 0.5 ml final volume for each concentration of one given excipient agent. Distribution of the excipient-containing solution was performed using automated pipet-aid in sterile environment (under PSM) or not depending on time of compounds and duration of incubation.
After stimulation, cells were replaced in a CO2 incubator for the required time of exposure.

ARPE-19 cells [2] = format: cell-based
Description: Cell morphology was visualized using light microscopy. Cell morphology observation using light microscopy permits determination of (i) cell number and density and (ii) whether or not cells in contact with an excipient agent display modified phenotype compared to a non-treated population of cells.
Cell morphology was analyzed in parallel by semi-quantitative scoring ranging from 5 to 1, from basal to lethal phenotype respectively, as shown in FIG. 23.
More specifically, cells were removed from an incubator for examination. Morphological shape of cells was visualized using a light microscope and CCD camera. Every 3 wells of a given concentration was observed through image analysis software. Then, a representative photograph describing the average appearance of cells was saved. The supernatant was either, kept for further predefined experiments to perform, or removed using vacuum-pump.
Resulting semi-quantitative scoring is represented as a function of time course and dose response. Score 5 : wild type phenotype of non-treated cells, 100% confluent adherent cells. This phenotype very much vary following post-seeding time. For example, at confluence ARPE-19 cells at 1 day appear well defined with visible outer membrane and dark grey cytoplasm. After 3 days of confluence, limits between cells become less visible and cells adopt a more hexagonal shape and constitute an epithelium-like uniform dense structure. Score 4: density <100%. Cell shape has changed, some spaces are present between cells, few cells possibly detached. Score 3: 80% <Cell density <40%. Spaces are sometimes present among cells, areas appears confluent while in others, cells detached. General cell shape starts showing non negligible alterations. Score 2: Cell density <50%. Cells adopt exclusively stressed appearance, presence of mass dead floating cells. Score 1: Cell density <10%. Presence of almost exclusively dead cells.
Based on quotation, each condition of the applied compound was given a score which allow to a morphology evolution profile to be prepared, ie. cell morphology as a function of compound concentration and time of exposure. […]

[3] = pH of excipient-containing incubating solutions; format: physicochemical
Description: (§1) For each concentration of tested compound, pH and osmolarity parameters were measured.

[4] = Osmolarity of excipient-containing incubating solutions; format: physicochemical
Description: Osmolarity was measured using osmometer type 13/13DR from Roebling (Berlin, GR).
as §1

OCc1ccccc1 [Benzyl alcohol, benzyl alcohol]
MTT IC50 (%) (ARPE-19 cells [1]): 0.07%
Cell viability, experiments 1, 2, 3 (ARPE-19 cells [1]; human, 72 h, 0.05 %): 50.8%
Living cells (observation) (ARPE-19 cells [2]): no living cells survived
IC50 based on cell morphology (ARPE-19 cells [2]; ARPE-19, estimated from morphology data): about 0.07%
Morphology limit concentration (%) (ARPE-19 cells [2]; human): 0.07%
Cell morphology score, Mean (ARPE-19 cells [2]; human, 24 h, 0.05 %): 3.3
Cell morphology score, Mean (ARPE-19 cells [2]; human, 24 h, 0.1 %): 3.0
Cell morphology score, Mean (ARPE-19 cells [2]; human, 24 h, 0.5 %): 1.0
Cell morphology score, Mean (ARPE-19 cells [2]; human, 24 h, 1 %): 1.0
Cell morphology score, Mean (ARPE-19 cells [2]; human, 24 h, 2 %): 1.0
Cell morphology score, Mean (ARPE-19 cells [2]; human, 24 h, […]): 1.0
Cell morphology score, Mean (ARPE-19 cells [2]; human, 48 h, 0.05 %): 3.7
Cell morphology score, Mean (ARPE-19 cells [2]; human, 48 h, 0.1 %): 3.0
Cell morphology score, Mean (ARPE-19 cells [2]; human, 48 h, 0.5 %): 1.0
Cell morphology score, Mean (ARPE-19 cells [2]; human, 48 h, 1 %): 1.0
Cell morphology score, Mean (ARPE-19 cells [2]; human, 48 h, 2 %): 1.0
Cell morphology score, Mean (ARPE-19 cells [2]; human, 48 h, […]): 1.0
Cell morphology score, Mean (ARPE-19 cells [2]; human, 72 h, 0.05 %): 3.3
Cell morphology score, Mean (ARPE-19 cells [2]; human, 72 h, 0.1 %): 3.0
Cell morphology score, Mean (ARPE-19 cells [2]; human, 72 h, 0.5 %): 1.0
Cell morphology score, Mean (ARPE-19 cells [2]; human, 72 h, 1 %): 1.0
Cell morphology score, Mean (ARPE-19 cells [2]; human, 72 h, 2 %): 1.0
Cell morphology score, Mean (ARPE-19 cells [2]; human, 72 h, […]): 1.0
pH of excipient dilution ([3]; 0.05% in culture medium): 8
pH of excipient dilution ([3]; 0.1% in culture medium): 8.1
pH of excipient dilution ([3]; 0.5% in culture medium): 8
pH of excipient dilution ([3]; 1% in culture medium): 7.9
pH of excipient dilution ([3]; 2% in culture medium): 8
pH of excipient dilution ([3]; […] in culture medium): 7.9
Osmolarity of excipient dilution ([4]; 0.05% in culture medium): 293 mOsm
Osmolarity of excipient dilution ([4]; 0.1% in culture medium): 307 mOsm
Osmolarity of excipient dilution ([4]; 0.5% in culture medium): 347 mOsm
Osmolarity of excipient dilution ([4]; 1% in culture medium): 398 mOsm
Osmolarity of excipient dilution ([4]; 2% in culture medium): 493 mOsm
Osmolarity of excipient dilution ([4]; […] in culture medium): 444 mOsm

hydroxypropyl beta-cyclodextrin [Kleptose®]
Decrease of cell viability (ARPE-19 cells [1]): about 40%
Reduction of cell survival (ARPE-19 cells [1]; 0.1% (w/v), 24, 48 and 72 hour time points): 20-30%
Cell survival (% of the initial value) (ARPE-19 cells [1]; 1% (w/v)): about 70%
Cell survival (ARPE-19 cells [1]; 5% (w/v), 24 h): complete disappearance of living cells; also recorded: about 20%
IC50 (50% cell viability inhibition, MTT) (ARPE-19 cells [1]; ARPE-19, all incubation times 24-72 h, estimated from graph): about 2.2%
MTT IC50 (%) (ARPE-19 cells [1]): 2.2-2.5%
Morphology limit concentration (%) (ARPE-19 cells [2]): 2.6-3%
pH of excipient dilution ([3]; 0.1% in culture medium): 7.6
pH of excipient dilution ([3]; 0.5% in culture medium): 7.6
pH of excipient dilution ([3]; 1% in culture medium): 7.5
pH of excipient dilution ([3]; 5% in culture medium): 7.5
pH of excipient dilution ([3]; 10% in culture medium): 7.5
pH of excipient dilution ([3]; 20% in culture medium): 7.6
Osmolarity of excipient dilution ([4]; 0.1% in culture medium): 309 mOsm
Osmolarity of excipient dilution ([4]; 0.5% in culture medium): 317 mOsm
Osmolarity of excipient dilution ([4]; 1% in culture medium): 325 mOsm
Osmolarity of excipient dilution ([4]; 5% in culture medium): 375 mOsm
Osmolarity of excipient dilution ([4]; 10% in culture medium): 459 mOsm
Osmolarity of excipient dilution ([4]; 20% in culture medium): 635 mOsm
